Here are results for 12 compounds from PMC10302582, “Unveiling the Potential of BenzylethyleneAryl–Urea Scaffolds for the Design of New Onco Immunomodulating Agents” (Pharmaceuticals, 2023).

The subject of data set [1] is HT-29 (colon adenocarcinoma). Nature of the data set: MTT cell proliferation assay, HT-29. The following applies: Homo sapiens, HT-29; MTT, 48 h treatment; read-out: IC50 HT-29. The data set is classed as cell-based. Here is the method: (§1) After the supernatant was discarded, we solved the formazan crystal in 100 µL of DMSO. The absorbance was then registered at 550 nm using a plate lector. For all concentrations of any compound, cell viability was expressed as the percentage of the ratio between the mean absorbance of the treated cells and the mean absorbance of the untreated cells. Three to five experiments were performed to establish the IC50 values (i.e., concentration half inhibiting cell proliferation, we used GraphPad Prism 7 software).

The subject of data set [2] is A-549 (pulmonary adenocarcinoma). Put plainly: MTT cell proliferation assay, A-549. The data set is classed as cell-based. Particulars: Homo sapiens, A549; MTT, 48 h treatment; read-out: IC50 A-549. Here is the method:
as §1

Data set [3] deals with HEK-293 (human embryonic kidney cells). Put plainly: MTT cell proliferation assay, HEK-293. Type of data set: cell-based. The following applies: HEK293, 48 h treatment. The protocol: (§2) The action on cell proliferation caused by our developed compounds was studied using an MTT assay using the human tumor cell lines of HT-29 (colon adenocarcinoma) and A-549 (pulmonary adenocarcinoma), as well as toward the non-tumor cell line HEK-293 (human embryonic kidney cells), Jurkat T-cells and human microvessel endothelial cells (HMEC-1).
(§3) In general, 5 × 10^3 (HT-29, A549, HMEC-1, Jurkat and HEK-293) cells per well were seeded in 96-well plates with 1:1 dilutions of the compounds in a volume of 100 μL of the cell media. The 3-(4,5-dimethylthiazol-2-yl)-2,5-diphenyltetrazolium bromide (MTT; Sigma Chemical Co.) dye exclusion assay was performed, and after 48 h (37 °C, 5% CO2 in a humid atmosphere), 10 μL of MTT (5 mg/mL in phosphate-buffered saline, PBS) was added to each well and incubated for 3 h at 37 °C. After the supernatant was discarded, we solved the formazan crystal in 100 µL of DMSO. The absorbance was then registered at 550 nm using a plate lector. For all concentrations of any compound, cell viability was expressed as the percentage of the ratio between the mean absorbance of the treated cells and the mean absorbance of the untreated cells. Three to five experiments were performed to establish the IC50 values (i.e., concentration half inhibiting cell proliferation, we used GraphPad Prism 7 software).

A further data set has as its system Jurkat T-cells. Put plainly: MTT cell proliferation assay, Jurkat T-cells. The data set is classed as cell-based. The following applies: 48 h treatment. Here is the method:
as §2, §3

The test system of data set [4] is human microvessel endothelial cells (HMEC-1). Nature of the data set: MTT cell proliferation assay, HMEC-1. Type of data set: cell-based. The following applies: 48 h treatment. Here is the method:
as §2, §3

For another data set, the target named is T1, PD-L1 (Homo sapiens, UniProt Q9NZQ7).
T1 construct: assess the effect of our new ureas on these two proteins only on the HT-29 cancer cell line through the use of flow cytometry; endogenous in cells; host or cells: HT-29
Nature of the data set: PD-L1 relative quantification by flow cytometry in HT-29 cells. Type of data set: cell-based. Particulars: for total PD-L1 (%) expression: HT-29 cells, 24 h, relative to DMSO control = 100. The protocol:
The cells were incubated for a period of time of one day with doses of each of the selected compounds at two different doses: 20 and 100 µM concentrations.
The effects of the compounds on the target in the cancer cell lines compounds were tested using 20 and 100 µM doses. For that, 10^5 cells per well were seeded on a 12-well plate for 24 h with the corresponding dose of the tested compound in a total volume of 500 μL of cell media. To determine the total PD-L1 and VEGFR-2, the cells were collected and fixed with 4% in a PBS of formaldehyde. After this, a treatment with 0.5% in PBS Triton^TM X-100 permeabilized the membranes. Finally, the cells were treated with FITC Mouse monoclonal Anti-Human VEGFR-2 (ab184903) and Alexa Fluor® 647 Rabbit monoclonal Anti-PD-L1 (ab215251).
To determine surface PD-L1 and VEGFR-2, the assay used was similar to the above but avoided the permeabilization step (Triton^TM X-100).

Another data set deals with HMEC-1 endothelial cells. Nature of the data set: Microvessel formation inhibition assay on Matrigel. Type of data set: cell-based, human. The following applies: HMEC-1 on Matrigel. The protocol:
The antiangiogenic action of the selected compounds, as well as the reference compounds, was evaluated by determining the effect on the formation of new microvessels formed by HMEC-1 endothelial cells on a Matrigel matrix.
We used IBIDI μ-slide angiogenesis plates (IBIDI, Martins ried, Germany). The wells were coated with 15 μL of Matrigel® (10 mg/mL, BD Biosciences, San Jose, CA, USA) at 4 °C and incubated at 37 °C for at least 30 min. Afterward, the HMEC-1 cells were seeded at 2 × 10^4 cells/well in 25 μL of medium and were left for 30 min at 37 °C while they attached. Then, the compounds were added in serial doses in 25 μL of the medium, and after several hours (maximum 24 h) of incubation at 37 °C, pictures for the wells were taken to evaluate the formation of microvessels.

T1 sequence (Q9NZQ7 19-290): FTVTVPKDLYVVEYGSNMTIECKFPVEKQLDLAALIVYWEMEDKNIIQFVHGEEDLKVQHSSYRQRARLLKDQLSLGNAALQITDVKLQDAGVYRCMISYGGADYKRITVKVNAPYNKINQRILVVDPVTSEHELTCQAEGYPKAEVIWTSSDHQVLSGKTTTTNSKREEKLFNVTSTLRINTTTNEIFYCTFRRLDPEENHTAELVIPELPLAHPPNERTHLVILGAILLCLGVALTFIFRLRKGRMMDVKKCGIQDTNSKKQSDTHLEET

For `COc1ccc(CCCc2cccc(NC(=O)Nc3ccccc3)c2)cc1` [C.2], the melting point was in the range of 157 to 159 °C. Further, in data set [1], the half-maximal inhibitory concentration (IC50) is 25 ± 5 µM. Further, the concentration for half-maximal inhibition (IC50) in data set [2] was > 100 µM. The compound also came in with a 50% inhibitory concentration (IC50) in data set [3] of 12 ± 1 µM. The concentration for half-maximal inhibition (IC50) with Jurkat T-cells (Homo sapiens, Jurkat, 48 h) is > 100 µM. The IC50 in data set [4] (Homo sapiens, HMEC-1, 48 h) is > 100 µM.

On to `COc1ccc(CCCc2cccc(NC(=O)Nc3cccc(F)c3)c2)cc1` [C.4], for which the melting point came out at 154 °C. Further, the IC50 in data set [1] was > 100 µM. Besides, the 50% inhibitory concentration (IC50) in data set [2] is > 100 µM. This compound also displayed an IC50 in data set [3] of 22 ± 5 µM. For the same compound, the half-inhibitory concentration (IC50) in the data set with Jurkat T-cells (Homo sapiens, Jurkat, 48 h) is > 100 µM. Moreover, the IC50 in data set [4] (Homo sapiens, HMEC-1, 48 h) is > 100 µM.

In turn, `COc1ccc(CCCc2cccc(NC(=O)Nc3ccccc3F)c2)cc1` [C.5] returned a melting point of 152 °C. Further, the concentration for half-maximal inhibition (IC50) in data set [1] turned out to be 58 ± 16 µM. Further, in data set [2], the 50% inhibitory concentration (IC50) turned out to be 29 ± 5 µM. Moreover, the 50% inhibitory concentration (IC50) in data set [3] was found to be 24 ± 4 µM. In the data set with Jurkat T-cells (Homo sapiens, Jurkat, 48 h), the IC50 was > 100 µM. The half-inhibitory concentration (IC50) in data set [4] (Homo sapiens, HMEC-1, 48 h) was > 100 µM.

Turning to `COc1ccc(CCCc2cccc(NC(=O)Nc3ccc(Cl)cc3)c2)cc1` [C.6], the melting point fell in the range of 179 to 182 °C. Further, the half-inhibitory concentration (IC50) in data set [1] was 4 ± 1 µM. In data set [2], the IC50 was 20 ± 10 µM. Further, 4 ± 1 µM corresponded to half-maximal inhibition in data set [3] (IC50). The half-inhibitory concentration (IC50) with Jurkat T-cells (Homo sapiens, Jurkat, 48 h) was > 100 µM. Also, the IC50 in data set [4] (Homo sapiens, HMEC-1, 48 h) was > 100 µM.

In turn, `COc1ccc(CCCc2cccc(NC(=O)Nc3cccc(Cl)c3)c2)cc1` [C.7] yielded a melting point of 143 to 147 °C. Besides, the half-maximal inhibitory concentration (IC50) in data set [1] came out at 14 ± 3 µM. Further, the IC50 in data set [2] worked out at 19 ± 1 µM. The compound further registered a half-maximal inhibitory concentration (IC50) in data set [3] of 14 ± 3 µM. Half-maximal inhibition with Jurkat T-cells (IC50) required 17 ± 1 µM. In addition, the half-maximal inhibitory concentration (IC50) with Jurkat T-cells (Homo sapiens, Jurkat, 48 h) was ~20 µM. In data set [4], this compound displayed a half-maximal inhibitory concentration (IC50) of 18 ± 8 µM. Also, the 50% inhibitory concentration (IC50) in data set [4] (Homo sapiens, HMEC-1, 48 h) was ~20 µM.

For the compound `COc1ccc(CCCc2cccc(NC(=O)Nc3ccccc3Cl)c2)cc1` [C.8], the melting point is 134 to 136 °C. Also, the half-maximal inhibitory concentration (IC50) in data set [1] was 47 ± 2 µM. Further, the IC50 in data set [2] was > 100 µM. Besides, inhibition in data set [3] was half-maximal at 37 ± 8 µM (IC50). For the same compound, the half-maximal inhibitory concentration (IC50) in the data set on Jurkat T-cells (Homo sapiens, Jurkat, 48 h) was > 100 µM. The IC50 in data set [4] (Homo sapiens, HMEC-1, 48 h) is > 100 µM.

With `COc1ccc(CCCc2cccc(NC(=O)Nc3ccc(Br)cc3)c2)cc1` [C.9], the half-maximal inhibitory concentration (IC50) in data set [1] was 1.9 ± 0.6 µM; in data set [2], 7 ± 1 µM; in data set [3], 2.1 ± 0.2 µM; in the data set on Jurkat T-cells (Homo sapiens, Jurkat, 48 h) it was > 100 µM; in data set [4] (Homo sapiens, HMEC-1, 48 h), > 100 µM.

As for `COc1ccc(CCCc2cccc(NC(=O)Nc3cccc(Br)c3)c2)cc1` [C.10], the melting point fell in the range of 141 to 144 °C. Also, the concentration for half-maximal inhibition (IC50) in data set [1] was 11 ± 2 µM. Also, the concentration for half-maximal inhibition (IC50) in data set [2] came out at 8 ± 2 µM. For the same compound, inhibition in data set [3] was half-maximal at 9 ± 4 µM (IC50). Also, in the data set with Jurkat T-cells, 18 ± 7 µM corresponded to half-maximal inhibition (IC50). Besides, the IC50 with Jurkat T-cells (Homo sapiens, Jurkat, 48 h) was ~20 µM. In data set [4], this compound showed an IC50 of 17 ± 7 µM. Moreover, in data set [4] (Homo sapiens, HMEC-1, 48 h), the 50% inhibitory concentration (IC50) is ~20 µM.

The compound `COc1ccc(CCCc2cccc(NC(=O)Nc3ccccc3Br)c2)cc1` [C.11] showed a melting point of 137 to 140 °C. Also, the 50% inhibitory concentration (IC50) in data set [1] was 15 ± 4 µM. Further, the half-inhibitory concentration (IC50) in data set [2] amounted to 20 ± 5 µM. In addition, in data set [3], half-maximal inhibition (IC50) required 27 ± 4 µM. The same compound returned a half-inhibitory concentration (IC50) in the data set with Jurkat T-cells of 26 ± 18 µM. In the data set on Jurkat T-cells (Homo sapiens, Jurkat, 48 h), the concentration for half-maximal inhibition (IC50) is ~20 µM. In data set [4], this compound showed an IC50 of 25 ± 1 µM. Besides, the half-inhibitory concentration (IC50) in data set [4] (Homo sapiens, HMEC-1, 48 h) is ~20 µM.

For the compound `COc1ccc(CCCc2cccc(NC(=O)Nc3cccc(OC)c3)c2)cc1` [C.13], the melting point lay in the range of 107 to 110 °C. The concentration for half-maximal inhibition (IC50) in data set [1] was found to be 8 ± 5 µM. In data set [2], the half-inhibitory concentration (IC50) was 18 ± 5 µM. This compound also registered a half-inhibitory concentration (IC50) in data set [3] of 15 ± 3 µM. The same compound yielded an IC50 in the data set on Jurkat T-cells of 24 ± 4 µM. Also, in the data set on Jurkat T-cells (Homo sapiens, Jurkat, 48 h), the IC50 is ~20 µM. Besides, the IC50 in data set [4] (Homo sapiens, HMEC-1, 48 h) is ~20 µM.

As to `CNC(=O)c1cc(Oc2ccc(NC(=O)Nc3ccc(Cl)c(C(F)(F)F)c3)cc2)ccn1` [Sorafenib, sorafenib, reference compound], the IC50 in data set [1] was 17 ± 4 µM; in data set [2] it was 27 ± 2 µM; in data set [3], 5 ± 0.7 µM; in data set [4] (Homo sapiens, HMEC-1, 48 h) it was 34 ± 3 µM. At PD-L1 (HT-29, at either of the tested doses (20 and 100 μM)), the “effect on total PD-L1” value is given as “No significant effect”. Moreover, the “total PD-L1 (%) expression” value was 96 ± 49% at PD-L1 (20 μM) and 102 ± 10% at PD-L1 (100 μM). The “Minimum Active Conc. inhibiting microtube formation” value in the data set on HMEC-1 endothelial cells turned out to be 10 µM.

Regarding `CCN(CC)CCNC(=O)c1c(C)[nH]c(/C=C2\C(=O)Nc3ccc(F)cc32)c1C` [Sunitinib, reference compound], the “Minimum Active Conc. inhibiting microtube formation” value in the data set on HMEC-1 endothelial cells amounted to 3 µM.
